Test results taken from US20160120894A1, “USE OF ADENOSINE ASPARTATE IN THE DI[…] M[…] INFLAMMATORY-[…] AND ITS REVERSAL” (UNIVERSIDAD NACIONAL AUTÓNOMA DE MÉXICO, priority 2013, published 2016).
Entries after “also recorded” stand apart in the source; their conditions may differ.

How the values were obtained:
serum cytokine = test: Prevention of CCl4-induced cirrhosis: serum cytokines by Luminex; format: in vivo, rats
Source text: FIGS. 1A to 1C refer to the obtained results for serum cytokine evaluated by Luminex® at 4, 6 and 8 weeks of administration of CCl4 and CCl4+IFC. Concentration (pg/mL)±standard deviation is shown.
(§1) Cirrhosis is a disease chronic degenerative characterized by diffuse fibrosis and regenerative nodules distorting tissue architecture. The diffuse fibrosis is supported by a chronic inflammatory process. During this process, chemokines and cytokines that favor this process are generated. In a model of prevention of cirrhosis by treatment with adenosine aspartate, knowing having an antifibrogenic effect, would allow knowing the effect of this drug during the establishment of cirrhosis for 4, 6 and 8 weeks and its effect on response activation immune and inflammation.
(§2) In this study, four groups of six male rats of 100 g to 110 g were formed; the rats were treated simultaneously under the same doses with CCl4 (25 μl of carbon tetrachloride in vegetable oil) and IFC-305 (50 mg/Kg). All treatments were given three times a week for 4, 6 and 8 weeks; at the moment of sacrifice, of serum and liver were taken.

[1] = test system: cytokines in liver homogenate; test: Prevention of CCl4-induced cirrhosis: cytokines in liver homogenate by Luminex; format: in vivo, rats; settings: CCl4+IFC-305 50 mg/Kg, 8 weeks
Source text: FIGS. 2A and 2B refer to the results obtained for cytokines in liver homogenate evaluated by Luminex® at 8 weeks of administration of CCl4 and CCl4+IFC-305. Concentration (pg/mL)±standard deviation is shown.
as §1, §2

[2] = test system: Kupffer cells (CD163+/CD11b+); test: Prevention of CCl4-induced cirrhosis: kinetic of Kupffer cells in the liver by flow cytometry; format: in vivo, rats; settings: CCl4+IFC-305 vs CCl4; 4, 6, 8 and 10 weeks
Procedure: FIG. 5 refers to the kinetic of Kupffer cells (CD163+/CD11b+) in the liver, assessed by flow cytometry at 4, 6, 8 and 10 weeks, administration with CCl4, IFC-305 and CCl4+IFC-305 to same time. % Kupffer cells±standard error.
as §2
FIG. 5 refers to a graphic showing the total number of Kupffer cells quantified with CD163+/CD11b/c+ for 4, 6, 8 and 10 weeks of treatment with CCl4, with an increase during the development of cirrhosis that decreases with the treatment of the compound IFC-305.

serum cytokines = test: Reversal of established CCl4 cirrhosis: serum cytokines by Luminex; format: in vivo, Wistar rats; settings: cirrhotic rats, IFC-305 50 mg/kg i.p. three times a week vs saline
Procedure: FIGS. 3A to 3C refer to the obtained results for serum cytokines evaluated by Luminex® in the different experimental groups of cirrhotic animals (Ci) treated with IFC-305 and saline for five and ten weeks (Ci SS 5s, Ci IFC 5s, Ci SS 10s and Ci IFC 10s post-treatment with CCl4). Concentration (pg/mL)±standard deviation is shown.
(§3) 100 g male Wistar rats were used, with free access to food and water. Cirrhosis was induced with 25 μl of CCl4 in vegetable oil three times a week for ten weeks. Once cirrhosis is established, the animals were divided into five groups: group I, treatment with CCl4 is suspended, control animals of cirrhosis are sacrificed, groups II and III is allowed to proceed cirrhosis and received three intraperitoneal injections of saline per week for 5 to 10 weeks, groups IV and V received three intraperitoneal injections of the compound at a dose of 50 mg/kg for 5 to 10 weeks; at the moment of sacrifice, serum and liver samples taken.

[3] = test system: cytokines in liver homogenate; test: Reversal of established CCl4 cirrhosis: cytokines in liver homogenate by Luminex; format: in vivo, Wistar rats; settings: cirrhotic rats, IFC-305 50 mg/kg i.p.
Procedure: FIGS. 4A to 4D refer to the obtained results for cytokines in liver homogenate evaluated by Luminex® in the different experimental groups of cirrhotic animals (Ci) treated with IFC-305 and saline for five and ten weeks (Ci SS 5s, Ci IFC 5s, Ci SS 10s, and Ci IFC 10s). Concentration (pg/mL)±standard deviation is shown.
as §3

[4] = test system: total macrophages (HIS36+/CD11b+) and inflammatory phenotype Kupffer cells (CD163+/CD11b/c+ (M1)); test: Reversal of established CCl4 cirrhosis: distribution of liver macrophages by flow cytometry; format: in vivo, Wistar rats; settings: cirrhotic rats, IFC-305 50 mg/kg i.p., five and ten weeks
Procedure: FIGS. 6A and 6B relate to the obtained results regarding the distribution of macrophages. […] Percentage (%) of Kupffer cells with respect to control±standard error.
as §3

Arginase I = test: Reversal of established CCl4 cirrhosis: Western blot of Arginase I in liver homogenate; format: in vivo, Wistar rats; settings: cirrhotic rats, IFC-305 50 mg/kg i.p., five and ten weeks
Procedure: FIG. 7 refers to Western blot Arginase I. Expression of total protein in liver homogenate in the different experimental groups treated with IFC-305 and saline for five and ten weeks.
as §3

[5] = CCl4+IFC-305 50 mg/Kg three times a week vs CCl4, 4, 6 and 8 weeks

Q: With adenosine aspartate [IFC-305] as the substance, how does the “serum IL-1β” value (serum cytokine; [5]) read?
A: decreasing

Q: And the “serum IL-4” value (serum cytokine; [5])?
A: decreasing; also recorded: decreased

Q: And the “serum IL-6” value (serum cytokine; CCl4+IFC-305 50 mg/Kg vs CCl4, 4 and 6 weeks)?
A: decreasing; also recorded: decrease

Q: What about the “serum IL-6” value (serum cytokine; CCl4+IFC-305 50 mg/Kg, 8 weeks) of the same substance?
A: increase

Q: What about the “liver homogenate IL-1β” value [1] of the same substance?
A: decreases

Q: What about the “liver homogenate IL-4” value [1] of the same substance?
A: decreases

Q: What about the “liver homogenate IL-6” value [1] of the same substance?
A: increase relative to the control

Q: What about the “liver homogenate IL-10” value [1] of the same substance?
A: decreases

Q: What about the “liver homogenate IL-12” value [1] of the same substance?
A: increase relative to the control

Q: What about the “liver homogenate INF-γ” value [1] of the same substance?
A: increase relative to the control

Q: And the “liver homogenate MCP-1” value [1]?
A: increase relative to the control

Q: What about the “liver homogenate IL-6” value ([1]; listed as adenosine aspartate) of the same substance?
A: increase

Q: What about the “total number of Kupffer cells (CD163+/CD11b/c+) in the liver” value [2] of the same substance?
A: decreases

Q: What about the “serum IL-4” value (serum cytokines; 5 weeks) of the same substance?
A: kept in similar values to controls or less; also recorded: maintained in an equal range to the control or lower

Q: What about the “serum IL-6” value (serum cytokines; 5 weeks) of the same substance?
A: kept in similar values to controls or less; also recorded: maintained in an equal range to the control or lower

Q: And the “serum IL-1β” value (serum cytokines; 10 weeks)?
A: kept in similar values to controls or less; also recorded: maintained in an equal range to the control or lower

Q: What about the “inflammatory cytokines in liver homogenate (cirrhosis high values)” value ([3]; 5 to 10 weeks) of the same substance?
A: reduced

Q: What about the “liver homogenate IL-1β” value ([3]; five and ten weeks) of the same substance?
A: decreased compared to cirrhotic control

Q: And the “liver homogenate IL-4” value ([3]; five and ten weeks)?
A: decreased compared to cirrhotic control

Q: What about the “liver homogenate IL-6” value ([3]; five and ten weeks) of the same substance?
A: regulated

Q: And the “IL-10 (anti-inflammatory cytokine), liver homogenate” value ([3]; five and ten weeks, 50 mg/kg)?
A: increased

Q: What about the “Kupffer cells with inflammatory phenotype (M1) CD163+/CD11b/c+” value [4] of the same substance?
A: decrease; also recorded: decreasing during the progression of cirrhosis and markedly with the treatment

Q: And the “total macrophages (HIS36+/CD11b+) in the liver” value [4]?
A: increases

Q: And the “arginase (Arginase I) protein in liver homogenate, Western blot” value (Arginase I)?
A: more amount of enzyme

Q: What about the “arginase (Arginase I) protein in liver homogenate, Western blot” value (Arginase I; 50 mg/kg) of the same substance?
A: increased
